{
  "source": "patent US11214567B2",
  "about": "“Small molecule inhibitors of MYC and uses thereof” (The Regents of the University of Michigan, priority 2017, dated 2022)",
  "tested_on": "C-MYC",
  "experiment": "Western blotting of C-MYC protein levels in cancer cells",
  "type": "cell-based, human",
  "protocol": "Cells (5×10^5) were cultured in 6-well plate and treated with KJA03 at designated concentrations. After treatment, cells were lysed with cell lysis buffer on ice at 4° C., sonicated for 3 min, centrifuged (12,000 rpm, 10 min, 4° C.) and then, the supernatant was collected. Protein concentrations of supernatants were evaluated with BCA assay. Proteins were resolved in 10% SDS/PAGE and electrotransferred to Immun-Blot PVDF membrane (Bio-Rad). After blocking with 5% milk in TBST (Tris-buffered saline with 0.1% Tween 20), membranes were probed with primary antibodies (anti-PARP, anti-caspase 3 and anti-GAPDH) 1:1000 dilutions overnight at 4° C. Membranes were then washed with TBST (5 min×3), incubated with Dylight 800-conjugated secondary antibodies 1:7500 dilutions in 5% milk for 1 h at room temperature, and washed with TBST (5 min×3). Fluorescent signal was then scanned by Odyssey Imaging Systems (LI-COR Biosciences).\nThe effect of KJA03 on the MYC protein levels, including C-MYC and N-MYC, NCI/ADR-RES cells were treated with KJA03 at concentration of 0.1 (half IC50) and 0.2 (IC50) μM for 24 and 48 h. […] It has previously been reported that JQ1 treatment leads to down-regulation of c-MYC protein levels in osteosarcoma, leukemia and lymphoma cells (see, e.g., Mertz, J. A.; et al., Proceedings of the National Academy of Sciences 2011, 108, 16669-16674).\nExperiments were conducted to further repeat the experiment and JQ1 was chosen as a positive control. As expected, expression of C-MYC was reduced by KJA03 at 24 h of treatment, correlated with previous experiment (FIG. 3).\nExperiments were conducted that further performed a time-course experiment to evaluate C-MYC suppression including 2, 6, 8 24 and 48 h at concentration of 0.2 μM. To define the specificity of MYC suppression in further detail, we treated cells with a range of compound concentrations at 24 h. […] To determine whether KJA03 can suppress C-MYC in different cell lines, we next investigated the level of C-MYC in response to treatment with KJA03 at 0.2 μM using other three different OVCAR8, MIA PaCa-2 and Panc-1 cell lines.",
  "note": "Entries after “also recorded” stand apart in the source; their conditions may differ.",
  "data": [
    {"smiles": "Cc1ccc(-c2noc(-c3ccccc3-n3c(-c4ccc(C)cc4)noc3=O)n2)cc1", "note": "[KJA03, 3-(P-tolyl)-4-(2-(3-(p-tolyl)-1,2,4-oxadiazol-5-yl)phenyl)-1,2,4-oxadiazol-5(4H)-one]", "values": [
      {"measurement": "MYC suppression, ovarian versus pancreatic cancer cells", "setting": "0.2 μM, OVCAR8, NCI/ADR-RES, MIA PaCa-2 and Panc-1", "result": "suppresses MYC strongly in ovarian cancer cells"},
      {"measurement": "MYC protein levels", "setting": "0.1 (half IC50) and 0.2 (IC50) μM at 24 and 48 h", "result": "significantly reduce MYC protein levels"},
      {"measurement": "C-MYC protein levels, range of concentrations", "setting": "MiaPaca-2", "result": "down-regulated dose-dependently"},
      {"measurement": "C-MYC protein levels", "setting": "NCI/ADR-RES cells, 0.2 μM, 24 h", "result": "reduced C-MYC levels; also recorded: efficiently decrease the C-MYC protein levels"},
      {"measurement": "C-MYC suppression, time-course", "setting": "NCI/ADR-RES, 0.2 μM, 2, 6, 8, 24 and 48 h", "result": "significantly suppressed only at 24 h"},
      {"measurement": "C-MYC protein levels, range of concentrations", "setting": "NCI/ADR-RES, 24 h", "result": "decreased levels of C-MYC in a dose-dependent manner; also recorded: down-regulated dose-dependently"},
      {"measurement": "C-MYC protein levels, range of concentrations", "setting": "OVCAR8", "result": "down-regulated dose-dependently"},
      {"measurement": "C-MYC protein levels, range of concentrations", "setting": "Pac-1", "result": "down-regulated dose-dependently"}
    ]}
  ]
}
